The test system of assay [1] is endothelial tube formation in co-cultures of ECFCs and ADSCs treated with VEGF. As to the kind of experiment: cells. It counts as cell-based, human. Conditions: Homo sapiens, read-out: Anti-Angio IC50.
Assay [2] concerns nuclear β-catenin in C2C12 cells. As to the kind of experiment: cells. It counts as cell-based. Conditions: Mus musculus.
For assay [3], the system named is INS-1E cells. As to the kind of experiment: cells. The assay is classed as cell-based, rat.
Assay [4] deals with tonic K+ channel activity in INS-1E cells. As to the kind of experiment: cells. It counts as cell-based, rat. Conditions: Rattus norvegicus, INS-1E, read-out: K+ channel assay IC50.
A further assay deals with NCI-H716 cells. As to the kind of experiment: cells. The assay is classed as cell-based, Human.
The test system of a further assay is HeLa cells. As to the kind of experiment: cells. The assay is classed as cell-based. The note with it: for EC50: Homo sapiens, read-out: CellCycle G2/M.
A further assay has as its system DLD-1. As to the kind of experiment: cells. The note with it: Homo sapiens. The assay is classed as cell-based.
The next assay deals with SW480. As to the kind of experiment: cells. Conditions: Homo sapiens. The assay is classed as cell-based.
The subject of another assay is HCT116. As to the kind of experiment: cells. It counts as cell-based. The note with it: Homo sapiens.
Assay [5] concerns HCT116 cells treated with a GSK3β inhibitor. As to the kind of experiment: cells. The note with it: Homo sapiens. It counts as cell-based.
Assay [6] deals with INS-1E cells. It counts as cell-based, rat. Conditions: INS-1E, 0.1 mM glucose.
The mark [7] stands for this setting: Table 2, primary assay tube area, 20 = no response in concentration-response, 20.1 = inactive in single concentration testing.
Setting [8] is: C2C12, Table 2, C2C12, […], 20 / 20.1 coded, read-out: Wnt pot. EC50.
Setting [9] is: Rattus norvegicus, INS-1E; read-out: Ins. sec. EC50.
The mark [10] stands for this setting: Rattus norvegicus, INS-1E; read-out: Insulin Secretion.
[11] abbreviates: DLD-1, 72 h, Table 2, 72 h, Cell TiterGlo, non-adherent, 20 coded, read-out: DLD-1 viab. IC50.
Setting [12] is: SW480, 72 h, Table 2, 72 h, Cell TiterGlo, non-adherent, 20 coded, read-out: SW480 viab. IC50.
Setting [13] is: SW480, basal, SW480, read-out: Basal_Viability ATP SW480.
The mark [14] stands for this setting: HCT-116, 72 h, read-out: HCT-116 viab. IC50, Table 2, basal, 72 h, Cell TiterGlo, non-adherent, 20 coded.
Where [15] appears, read: HCT-116, read-out: HCT-116 (GSK3β) viab. IC50, Table 2, GSK3β inhibitor LY2090314 20 nM, 72 h, Cell TiterGlo, 20 coded.
Setting [16] is: Rattus norvegicus; INS-1E, 5 mM glucose; read-out: insulin secretion EC50.
Setting [17] is: Homo sapiens, NCI-H716; read-out: GLP1 sec. EC50.

5 molecules from article PMC4503722, “Novel Phenotypic Outcomes Identified for a Public Collection of Approved Drugs from a Publicly Accessible Panel of Assays” (PLoS ONE, 2015) can be followed below.

The structures appear in SMILES notation. Like-named read-outs stand apart in the source and are kept apart here.

On to `CC(CC1c2ccccc2CCc2ccccc21)CN(C)C` (centres unmarked) [butriptyline, reference compound], for which the IC50 in [1] was > 10 µM; in assay [4] it was > 20 µM; in the assay on DLD-1 (DLD-1, 72 h, read-out: DLD-1 viab. IC50), 8.1 µM; in the assay with DLD-1 (DLD-1, read-out: Basal_Viability ATP DLD-1), 8.1 µM; in the assay on SW480 (SW480, 72 h, read-out: SW480 viab. IC50), 7.8 µM; with SW480 (SW480, read-out: Basal_Viability ATP SW480), 7.84 µM. Moreover, the IC50 was 6.2 µM in the assay on HCT116 (HCT-116, 72 h, read-out: HCT-116 viab. IC50); 6.21 µM in the assay with HCT116 (HCT-116, read-out: Basal_Viability ATP HCT116); > 20 µM in [5] (HCT-116, 72 h, read-out: HCT-116 (GSK3β) viab. IC50). In addition, the EC50 in assay [2] (C2C12, read-out: Wnt pot. EC50) was > 10 µM; with INS-1E cells [3] (Rattus norvegicus, INS-1E, read-out: Ins. sec. EC50) it was 3.6 µM; in the assay on INS-1E cells [3] (Rattus norvegicus, INS-1E, read-out: Insulin Secretion), 3.64 µM; in the assay with NCI-H716 cells (Homo sapiens, NCI-H716, read-out: GLP1 sec. EC50), > 10 µM; with HeLa cells (HeLa) it was > 10 µM.

As for `CCN(CC)CCOc1ccccc1C(=O)CCc1ccccc1` [etafenone, reference compound], the IC50 in [1] (setting [7]) is > 10 µM; in assay [4] (0.1 mM glucose, thallium flux), 6.7 µM; in the assay on DLD-1 (setting [11]) it was > 20 µM; in the assay on SW480 (setting [12]) it was 16.9 µM; in the assay on SW480 (setting [13]) it was 16.9 µM; with HCT116 (setting [14]), 11.2 µM. Also, the IC50 was 11.2 µM in the assay with HCT116 (HCT-116, basal, HCT116, read-out: Basal_Viability ATP HCT116) and > 20 µM in assay [5] (setting [15]). The EC50 in assay [2] (setting [8]) is > 10 µM; in the assay with INS-1E cells [3] (setting [9]), 3.9 µM; in the assay with INS-1E cells [3] (setting [10]) it was 3.89 µM; in the assay on HeLa cells (HeLa, S2 Table, HeLa, 20 = no response at highest concentration), > 10 µM. For the same molecule, in the assay on HeLa cells, the “G2/M IC50 / EC50” value was 20 (values shown as 20 indicate that the compound was tested in concentration-response and showed no response at the highest concentration tested (e.g. IC50 > 20 μM)).

Regarding `COc1ccc(Cl)cc1C(=O)NCCc1ccc(S(=O)(=O)NC(=O)NC2CCCCC2)cc1` [glibenclamide, reference compound], the IC50 in assay [1] (setting [7]) was > 10 µM; in the assay on DLD-1 (setting [11]), > 20 µM; with SW480 (setting [12]), 2.9 µM; with SW480 (setting [13]), 2.92 µM; with HCT116 (setting [14]) it was > 20 µM; in assay [5] (setting [15]), > 20 µM. For the same molecule, the EC50 was > 10 µM in [2] (setting [8]); 0.002 µM in the assay on INS-1E cells [3] (setting [9]); 0.00247 µM in the assay with INS-1E cells [3] (setting [10]); 0.0025 µM with INS-1E cells [3] (setting [16]); > 10 µM in the assay on NCI-H716 cells (setting [17]). The “insulin secretion at low glucose (in words)” value in the assay with INS-1E cells [6] is recorded as “stimulated insulin secretion at low glucose concentrations”.

For `CCN(CCCCOC(=O)c1ccc(OC)c(OC)c1)C(C)Cc1ccc(OC)cc1` (centres unmarked) [mebeverine, reference compound], the IC50 is > 10 µM in assay [1] (setting [7]); 1.7 µM in assay [4] (0.1 mM glucose, thallium flux); > 20 µM in the assay on DLD-1 (setting [11]); > 20 µM in the assay on SW480 (setting [12]); > 20 µM in the assay on HCT116 (setting [14]); > 20 µM in assay [5] (setting [15]). The EC50 is > 10 µM in assay [2] (setting [8]); 2 µM with INS-1E cells [3] (setting [9]); 1.95 µM with INS-1E cells [3] (Rattus norvegicus; IC50 / EC50; INS-1E; read-out: Insulin Secretion); > 10 µM in the assay with NCI-H716 cells (setting [17]); > 10 µM with HeLa cells (HeLa, IC50 / EC50, HeLa). Further, the “G2/M IC50 / EC50” value with HeLa cells is 20 (values shown as 20 indicate that the compound was tested in concentration-response and showed no response at the highest concentration tested (e.g. IC50 > 20 μM)).

As for `CCOc1cc(CC(=O)N[C@@H](CC(C)C)c2ccccc2N2CCCCC2)ccc1C(=O)O` [repaglinide, reference compound], the IC50 in [1] (setting [7]) is > 10 µM; in the assay on DLD-1 (setting [11]), > 20 µM; in the assay on SW480 (setting [12]), > 20 µM; in the assay with HCT116 (setting [14]), > 20 µM; in assay [5] (setting [15]), > 20 µM. In addition, the EC50 in assay [2] (setting [8]) is > 10 µM; in the assay on INS-1E cells [3] (setting [9]) it was 0.03 µM; with INS-1E cells [3] (setting [16]) it was 0.027 µM; with NCI-H716 cells (setting [17]) it was > 10 µM. In addition, the “insulin secretion at low glucose (in words)” value with INS-1E cells [6] was “stimulated insulin secretion at low glucose concentrations”. Moreover, in the assay on HeLa cells (Table 2, HeLa, […], 20 / 20.1 coded), the “G2/M IC50 / EC50” value is listed as 20.1.
